Experimental findings from ChEMBL document CHEMBL3608291, “Chemical constituents of Miliusa balansae leaves and inhibition of nitric oxide production in lipopolysaccharide-induced RAW 264.7 cells” (Bioorg Med Chem Lett, 2015) are described below.

In data set [1] the test system is RAW264.7. Put plainly: Cytotoxicity against mouse RAW264.7 cells assessed as reduction in cell viability at 10 to 40 uM by MTT assay. The settings on record: raw264.7, 40 µM. Type of data set: cell-based.
The subject of data set [2] is RAW264.7. Kind of data set: Anti-inflammatory activity in LPS-stimulated mouse RAW264.7 cells assessed as inhibition of nitric oxide production at 20 uM by Griess reaction based ELISA method. Type of data set: functional.
Data set [3] has as its system RAW264.7. Put plainly: Anti-inflammatory activity in LPS-stimulated mouse RAW264.7 cells assessed as inhibition of nitric oxide production at 10 uM by Griess reaction based ELISA method. The class given is functional, cell-based. (In general: The Griess reaction detects nitrite, a stable product of nitric oxide.)
The test system of data set [4] is RAW264.7. Kind of data set: Anti-inflammatory activity in LPS-stimulated mouse RAW264.7 cells assessed as inhibition of nitric oxide production at 40 uM by Griess reaction based ELISA method. Type of data set: functional.
The subject of data set [5] is RAW264.7. Kind of data set: Anti-inflammatory activity in LPS-stimulated mouse RAW264.7 cells assessed as inhibition of nitric oxide production at 10 to 40 uM by Griess reaction based ELISA method. The class given is functional.

Structures are written as SMILES. Calls of active or inactive are those of the source. No cut-off for these calls is given here.

Regarding `CC(=O)/C=C/[C@@]12O[C@@H](C[C@]1(C)O[C@@H]1O[C@H](CO)[C@@H](O)[C@H](O)[C@H]1O)[C@H](O)C2(C)C`, the Activity entry in the data set with RAW264.7 [1] is given as “Non-toxic”. Moreover, the inhibition at 20 µM in the data set with RAW264.7 [2] came out at 98.5%.
Taken in the same sequence, the figures for `CC(=O)/C=C/[C@@]12O[C@@H](C[C@]1(C)O[C@@H]1O[C@H](CO[C@@H]3OC[C@](O)(CO)[C@H]3O)[C@@H](O)[C@H](O)[C@H]1O)[C@H](O)C2(C)C` were “Non-toxic” and 90.9%.
Take `CC(=O)/C=C/[C@@]12O[C@@H](CC1(C)C)C[C@@]2(C)O[C@@H]1O[C@H](CO)[C@@H](O)[C@H](O)[C@H]1O`: the Activity result in the data set on RAW264.7 [1] is given as “Non-toxic”. Further, the inhibition at 20 µM in the data set on RAW264.7 [2] amounted to 84.8%.
For `C[C@H](CC[C@H]1[C@H](C)C[C@H](O)CC1(C)C)O[C@@H]1O[C@H](CO)[C@@H](O)[C@H](O)[C@H]1O`, the Activity result with RAW264.7 [1] was “Non-toxic”. Moreover, the inhibition entry in the data set on RAW264.7 [3] and in the data set on RAW264.7 [2] was “Active” throughout. In addition, in the data set on RAW264.7 [4], the inhibition at 40 µM is 82%.
On to `C[C@H](/C=C/[C@@]1(O)[C@H](C)CC(=O)CC1(C)C)O[C@@H]1O[C@H](CO)[C@@H](O)[C@H](O)[C@H]1O`, for which, in the data set with RAW264.7 [1], the Activity result was “Non-toxic”. Further, the inhibition result in the data set with RAW264.7 [3], in the data set with RAW264.7 [2] and in the data set with RAW264.7 [4] was “inactive” throughout.
`C[C@H](CC[C@H]1[C@H](C)CC(=O)CC1(C)C)O[C@@H]1O[C@H](CO)[C@@H](O)[C@H](O)[C@H]1O`: the Activity result in the data set with RAW264.7 [1] is reported as “Non-toxic”. Further, the inhibition entry in the data set on RAW264.7 [3], in the data set with RAW264.7 [2] and in the data set on RAW264.7 [4] was “inactive” each time.
In the case of `CC1=C2C[C@@H]3[C@@](C)(C[C@]2(O)OC1=O)[C@H](O)CC[C@]3(C)O`, in the data set on RAW264.7 [1], the Activity result is “Non-toxic”. Moreover, the inhibition entry in the data set on RAW264.7 [3], in the data set with RAW264.7 [2] and with RAW264.7 [4] was “inactive” in each case.
For the molecule `CC/C=C\CCO[C@@H]1O[C@H](CO)[C@@H](O)[C@H](O)[C@H]1O`, the Activity entry with RAW264.7 [1] was “Non-toxic”. In the data set on RAW264.7 [2], the inhibition at 20 µM amounted to 91.8%.
Regarding `COc1cc([C@H](O)[C@H](CO)O[C@@H]2O[C@H](CO)[C@@H](O)[C@H](O)[C@H]2O)ccc1O`, the Activity entry in the data set on RAW264.7 [1] is “Non-toxic”. The inhibition at 20 µM in the data set on RAW264.7 [2] was 91.5%. Besides, the “inhibition (INH)” value in the data set with RAW264.7 [5] came to 98%.
With `CC(C)CC(=O)c1c(O)cc(O)cc1O[C@@H]1O[C@H](CO)[C@@H](O)[C@H](O)[C@H]1O`, in the data set with RAW264.7 [1], the Activity entry is listed as “Non-toxic”. The inhibition result in the data set on RAW264.7 [3], with RAW264.7 [2] and in the data set on RAW264.7 [4] was “inactive” throughout.
As for `COc1cc([C@H](O)[C@@H](O)CO)cc(OC)c1O` (relative stereo), the Activity result in the data set on RAW264.7 [1] is “Non-toxic”. For the same molecule, the inhibition entry in the data set with RAW264.7 [3], in the data set on RAW264.7 [2] and in the data set on RAW264.7 [4] was “inactive” in each case.
Take `COc1cc([C@H](O)[C@H](O)CO)cc(OC)c1O` (relative stereo): in the data set on RAW264.7 [1], the Activity result is “Non-toxic”. Moreover, the inhibition entry with RAW264.7 [3], in the data set with RAW264.7 [2] and with RAW264.7 [4] was “inactive” in each case.
In the case of `COc1cc([C@H](O)[C@@H](O)CO)ccc1O` (relative stereo), the Activity entry in the data set on RAW264.7 [1] is given as “Non-toxic”. For the same molecule, the inhibition result in the data set on RAW264.7 [3], with RAW264.7 [2] and in the data set on RAW264.7 [4] was “inactive” in each case. Further, the “inhibition (INH)” value in the data set with RAW264.7 [5] amounted to 48.4%.
In the case of `COc1cc([C@H](O)[C@H](O)CO)ccc1O` (relative stereo), the Activity result in the data set with RAW264.7 [1] was “Non-toxic”. Moreover, the inhibition result in the data set with RAW264.7 [3], in the data set on RAW264.7 [2] and with RAW264.7 [4] was “inactive” in each case. Moreover, the “inhibition (INH)” value with RAW264.7 [5] is given as 48.4%.
In the case of `Oc1cc(O)c2c(c1)O[C@H](c1ccc(O)c(O)c1)[C@H](O)C2` [(-)-EPICATECHIN], the Activity result in the data set on RAW264.7 [1] was “Non-toxic”. Further, the inhibition entry in the data set with RAW264.7 [3] and in the data set on RAW264.7 [2] was “Active” throughout. In the data set with RAW264.7 [4], the inhibition at 40 µM is 91.8%.
With `CC1=C2C[C@@H]3[C@@](C)(C[C@]2(O)OC1=O)[C@H](O)CC[C@@]3(C)O` [CHLORAEUDOLIDE], in the data set with RAW264.7 [1], the Activity entry is listed as “Non-toxic”. Moreover, the inhibition result in the data set with RAW264.7 [3], in the data set with RAW264.7 [2] and with RAW264.7 [4] was “inactive” each time.
For the molecule `COc1cc(-c2oc3cc(OC)c(O)c(O)c3c(=O)c2OC)ccc1O` [CHRYSOSPLENOL C], the Activity result in the data set with RAW264.7 [1] is reported as “Non-toxic”. Besides, the inhibition entry in the data set with RAW264.7 [3], with RAW264.7 [2] and with RAW264.7 [4] was “inactive” each time.
In the case of `C[C@@H]1O[C@@H](OC[C@H]2O[C@@H](Oc3c(-c4ccc(O)c(O)c4)oc4cc(O)cc(O)c4c3=O)[C@H](O)[C@@H](O)[C@@H]2O)[C@H](O)[C@H](O)[C@H]1O` [RUTIN], the Activity result in the data set with RAW264.7 [1] is given as “Non-toxic”. In addition, the inhibition entry in the data set with RAW264.7 [3], with RAW264.7 [2] and with RAW264.7 [4] was “inactive” each time.
Take `O=C1/C(=C/c2ccc(O)c(O)c2)Oc2cc(O)ccc21` [SULFURETIN]: the inhibition at 20 µM in the data set on RAW264.7 [2] amounted to 81.3%.

For orientation: inhibition means the drop in the measured response relative to a control, in per cent.
